The series in a line: UV absorption (absorbance coefficient). The format is physicochemical. The following applies: 314 nm. The source says: Uvinul® T150 is notable for good UV absorption properties and an extremely high absorbance coefficient of >1500 and 314 nm.

Molecules are shown by their SMILES.

`CCCCC(CC)COC(=O)c1ccc(Nc2nc(Nc3ccc(C(=O)OCC(CC)CCCC)cc3)nc(Nc3ccc(C(=O)OCC(CC)CCCC)cc3)n2)cc1` (stereo not shown) [Uvinul® T150, 2,4,6-trianilino-p-(carbo-2′-ethylhexyl-1′-oxy)-1,3,5-triazine]: the absorbance coefficient is more than 1500.

Source of the values: US6531117B2, “Aqueous dispersion of water-insoluble organic UV filter substances” (BASF Aktiengesellschaft, priority 2000, dated 2003).
